Patent US9457087B2, “Stable crystal modifications of DOTAP chloride” (Merck Patent GmbH, priority 2004, dated 2016)
One block for each compound: values may come before it.

Tests used:
[1] = Storage stability of crystalline DOTAP chlorides (HPLC purity and content); assay type: physicochemical; conditions: 25° C., 60% relative humidity, exclusion of air
Protocol: In order to determine the stability of crystalline DOTAP chlorides, the substances are stored together with comparative samples at 25° C. and 60% relative humidity with exclusion of air. The remaining content of DOTAP chloride is measured at periodic intervals and quoted in comparison to the initial value.
The purity and content of DOTAP chloride are determined by means of HPLC.

[2] = DSC principal phase transition temperatures of multilamellar liposomes in water; assay type: physicochemical; conditions: heating cycles, lipid 0.1 g/ml, 1° C./min
Protocol: Differential scanning caliometry (DSC) measurements are carried out on multilamellar liposomes in water. Liposomes are prepared by the thin-film method from the calculated amounts of racemic or enantiomerically pure DOTAP chloride. The lipid concentration here is in each case 0.1 g/ml. Suitable amounts of these dispersions are then introduced into sealable aluminium crucibles and measured using a 204 Phoenix calorimeter (Netzsch, Seib, Germany). In each case, three successive heating/cooling runs from −50° C. to +20° C. are carried out at 1° C./min.
For all three DOTAP chloride variants, phase transition temperatures below 0° C. are found. For the cooling cycles, this is in each case at −23° C. to −24° C. Differences between racemic and enantiomerically pure DOTAP chloride are in each case evident in the heating cycles. […] (see FIG. 6).

[3] = Solubility in acetonitrile; assay type: physicochemical; conditions: room temperature
[4] = Hygroscopicity at normal atmospheric humidity; assay type: physicochemical; conditions: normal atmospheric humidity levels
[5] = storage under protective gas at −20° C.; guaranteed by manufacturer; cited from earlier work

Compound: CCCCCCCC/C=C\CCCCCCCC(=O)OCC(C[N+](C)(C)C)OC(=O)CCCCCCC/C=C\CCCCCCCC.[Cl-] (racemic) [(R,S)-DOTAP chloride crystalline type I, N,N,N-trimethyl-2,3-bis[[(9Z)-1-oxo-9-octadecenyl]oxy]-1-propanaminium chloride]
% by weight (content of DOTAP chloride) ([1]; exposure time 0 months): 98.6%
Area-% (HPLC purity) ([1]; exposure time 0 months): 100%
% by weight (content of DOTAP chloride) ([1]; exposure time 1 month): 97.%
Area-% (HPLC purity) ([1]; exposure time 1 month): 100.0%
% by weight (content of DOTAP chloride) ([1]; exposure time 2 months): 97.9%
Area-% (HPLC purity) ([1]; exposure time 2 months): 100.0%
% by weight (content of DOTAP chloride) ([1]; exposure time 3 months): 97.2%
Area-% (HPLC purity) ([1]; exposure time 3 months): 100.0%
% by weight (content of DOTAP chloride) ([1]; exposure time 6 months): 98.2%
Area-% (HPLC purity) ([1]; exposure time 6 months): 100.0%
% by weight (content of DOTAP chloride) ([1]; exposure time 12 months): 98.7%
Area-% (HPLC purity) ([1]; exposure time 12 months): 100.0%

Compound: CCCCCCCC/C=C\CCCCCCCC(=O)OCC(C[N+](C)(C)C)OC(=O)CCCCCCC/C=C\CCCCCCCC.[Cl-] (racemic) [racemate, N,N,N-trimethyl-2,3-bis[[(9Z)-1-oxo-9-octadecenyl]oxy]-1-propanaminium chloride]
endothermic phase transition temperature [2]: −17.5 °C
solubility in acetonitrile [3]: virtually insoluble

endothermic phase transition temperature [2]: around −12.5 °C
Compound: CCCCCCCC/C=C\CCCCCCCC(=O)OC[C@@H](C[N+](C)(C)C)OC(=O)CCCCCCC/C=C\CCCCCCCC.[Cl-] [(2R)-DOTAP chloride]

endothermic phase transition temperature [2]: around −12.5 °C
Compound: CCCCCCCC/C=C\CCCCCCCC(=O)OC[C@H](C[N+](C)(C)C)OC(=O)CCCCCCC/C=C\CCCCCCCC.[Cl-] [(2S)-DOTAP]

Compound: CCCCCCCC/C=C\CCCCCCCC(=O)OCC(C[N+](C)(C)C)OC(=O)CCCCCCC/C=C\CCCCCCCC.[Cl-] (stereo not drawn) [amorphous DOTAP chloride]
hygroscopicity [4]: extremely hygroscopic
shelf life [5]: about 6 months
